Patent publication US20180092908A1, “SMALL MOLECULE OXIDIZERS OF PDI AND THEIR USE” (THE TRUSTEES OF COLUMBIA UNIVERSITY IN THE CITY OF NEW YORK, priority 2015, published 2018)
pEC50: −log10 of the molar value. Like-named read-outs stand apart in the source and are kept apart here.

Tested on: PC12 mHTT^Q103 cells
Assay: Rescue of PC12 cells from mHTT^Q103 induced cell death (Alamar blue viability)
Format: cell-based
Details: Rattus norvegicus

**Q.** Which results are given for O=C(C1CC1)N1CCN(Cn2sc3ccccc3c2=O)CC1 [LOC14, 2-((4-(cyclopropanecarbonyl)piperazin-1-yl)methyl)benzo[d]isothiazol-3(2H)-one]?
**A.** pEC50 (PC-12, 48 h, read-out: EC50, rescue of PC12 mHTT^Q103 cells): 6.30; pEC50 (PC-12, read-out: Cell Viability Assay EC50): 6.99
